{"source": "patent US20210300926A1", "about": "“NEW BETA-LACTAMASE INHIBITORS TARGETING GRAM NEGATIVE BACTERIA” (priority 2017, published 2021)", "key": {"E. coli Top10": {"system": "E. coli Top10", "test": "MIC determination by microdilution, E. coli Top10 without β-lactamase (None)", "assay_type": "cell-based", "settings": "Escherichia coli; Cefamandole alone; E. coli Top10, β-lactamase None; read-out: MIC of β-lactam, inhibitor None", "from_the_text": "(§1) Plasmid and strain construction. For antibiotic susceptibility testing, the R-lactamase genes were cloned into the vector pTRC-99k, which is a derivative of pTRC99a (Pharmacia) obtained by replacing the β-lactamase resistance gene by a kanamycin resistance gene (Km, lacl, pTRC promoter, oriVcolEl; D. Mengin-Lecreulx, unpublished). Recombinant plasmids were introduced by electrotransformation into Escherichia coli Top10. For β-lactamase production, fragments of the β-lactamase genes encoding soluble enzymes, i.e. devoid of the signal peptides, were cloned into the vector pET-TEV generating translational fusions with a vector-encoded N-terminal 6×His Tag followed by a TEV cleavage site ([…]) (1).\n(§2) MIC determination. MICs of β-lactams were determined by the microdilution method in MH broth according to Clinical and Laboratory Standards Institute (CLSI) recommendations (12). Diazabicyclooctane were used at a fixed concentration of 15 μM (4 μg/ml for avibactam). Clavulanate was tested at 4 μg/ml. IPTG (500 μM) was added to the microdilution plates to induce production of the -lactamase. The precultures were grown in BHI broth containing IPTG (500 μM) and kanamycin (50 μg/ml) for plasmid maintenance. Reported MICs are the medians from five biological repeats obtained in two independent experiments."}, "[1]": {"system": "E. coli Top10 producing TEM-1", "test": "MIC determination by microdilution, E. coli Top10 producing TEM-1", "assay_type": "cell-based", "settings": "Escherichia coli, read-out: MIC of β-lactam, inhibitor None", "from_the_text": "as §1, §2"}}}
{"smiles": "Cn1nnnc1SCC1=C(C(=O)O)N2C(=O)[C@@H](NC(=O)[C@H](O)c3ccccc3)[C@H]2SC1", "note": "[Cefamandole]", "values": [{"measurement": "MIC", "setting": "E. coli Top10", "value": 2, "unit": "µg/mL"}, {"measurement": "MIC", "setting": "[1]", "value": "> 2050", "unit": "µg/mL"}]}
